System: Raji (Burkitt's) lymphoma cells
Assay: MTT assay for 4-day viability of Raji (Burkitt's) lymphoma cells
Type: cell-based
Settings: Homo sapiens, 96 h, Raji cells (highly express MCT1), read-out: approximate potency (EC50)
Description: Specific Examples 1-52 of compounds of the invention, with estimated EC50 values determined using an MTT assay for 4-day viability of Raji (Burkitt's) lymphoma cells, a cell line known to highly express MCT1 and to be sensitive to small molecule MCT inhibitors,^4 are shown in Table 2. Assay protocols follow those described in the literature.^4 Other assays that are not described here but that are standard in the field, such as an assay for competitive inhibition of transport of radiolabeled lactic acid, an MCT substrate, may also be useful in establishing mechanism of action of these compounds.

EC50	Compound
900 nM	Cc1n[nH]c(C)c1Cc1sc2c(c1-c1cc(F)c(F)c(CO)c1)c(=O)n(C1CC1)c(=O)n2CC(C)C [Example 18, 3-cyclopropyl-5-(3,4-difluoro-5-(hydroxymethyl)phenyl)-6-((3,5-dimethyl-1H-pyrazol-4-yl)methyl)-1-isobutylthieno[2,3-d]pyrimidine-2,4(1H,3H)-dione]
70 nM	Cc1n[nH]c(C)c1Cc1sc2c(c1-c1cc(CO)c(F)cc1F)c(=O)n(C1CC1)c(=O)n2CC(C)C [Example 19, 3-cyclopropyl-5-(2,4-difluoro-5-(hydroxymethyl)phenyl)-6-((3,5-dimethyl-1H-pyrazol-4-yl)methyl)-1-isobutylthieno[2,3-d]pyrimidine-2,4(1H,3H)-dione]
≤ 20 nM	Cc1n[nH]c(C)c1Cc1sc2c(c1-c1cccc(CO)c1F)c(=O)n(C1CC1)c(=O)n2CC(C)C [Example 20, 3-cyclopropyl-6-((3,5-dimethyl-1H-pyrazol-4-yl)methyl)-5-(2-fluoro-3-(hydroxymethyl)phenyl)-1-isobutylthieno[2,3-d]pyrimidine-2,4(1H,3H)-dione]
≤ 20 nM	Cc1n[nH]c(C)c1Cc1sc2c(c1-c1cc(CO)ccc1F)c(=O)n(C1CC1)c(=O)n2CC(C)C [Example 22, 3-cyclopropyl-6-((3,5-dimethyl-1H-pyrazol-4-yl)methyl)-5-(2-fluoro-5-(hydroxymethyl)phenyl)-1-isobutylthieno[2,3-d]pyrimidine-2,4(1H,3H)-dione]
≤ 20 nM	Cc1n[nH]c(C)c1Cc1sc2c(c1-c1ccnc(CO)c1)c(=O)n(C1CC1)c(=O)n2CC(C)C [Example 23, 3-cyclopropyl-6-((3,5-dimethyl-1H-pyrazol-4-yl)methyl)-5-(2-(hydroxymethyl)pyridin-4-yl)-1-isobutylthieno[2,3-d]pyrimidine-2,4(1H,3H)-dione]
1000 nM	Cc1n[nH]c(C)c1Cc1sc2c(c1-c1cccc(CO)c1)c(=O)n(C1CC1)c(=O)n2CC(C)C [Example 24, 3-cyclopropyl-6-((3,5-dimethyl-1H-pyrazol-4-yl)methyl)-5-(3-(hydroxymethyl)phenyl)-1-isobutylthieno[2,3-d]pyrimidine-2,4(1H,3H)-dione]
300 nM	CC(C)Cc1nn(C)c(=O)c2c(-c3ncc(CO)s3)n(Cc3cccc4ccccc34)cc12 [Example 25, 7-(5-(hydroxymethyl)thiazol-2-yl)-4-isobutyl-2-methyl-6-(naphthalen-1-ylmethyl)-2,6-dihydro-1H-pyrrolo[3,4-d]pyridazin-1-one]
90 nM	CC(C)Cc1nn(C)c(=O)c2c(-c3csc(CO)n3)n(Cc3cccc4ccccc34)cc12 [Example 26, 7-(2-(hydroxymethyl)thiazol-4-yl)-4-isobutyl-2-methyl-6-(naphthalen-1-ylmethyl)-2,6-dihydro-1H-pyrrolo[3,4-d]pyridazin-1-one]
80 nM	CC(C)Cc1nn(C)c(=O)c2c(-c3ccc(F)c(CO)c3F)n(Cc3cccc4ccccc34)cc12 [Example 27, 7-(2,4-difluoro-3-(hydroxymethyl)phenyl)-4-isobutyl-2-methyl-6-(naphthalen-1-ylmethyl)-2,6-dihydro-1H-pyrrolo[3,4-d]pyridazin-1-one]
40 nM	CC(C)Cc1nn(C)c(=O)c2c(-c3cc(CO)ccc3F)n(Cc3cccc4ccccc34)cc12 [Example 28, 7-(2-fluoro-5-(hydroxymethyl)phenyl)-4-isobutyl-2-methyl-6-(naphthalen-1-ylmethyl)-2,6-dihydro-1H-pyrrolo[3,4-d]pyridazin-1-one]
80 nM	CC(C)Cc1nn(C)c(=O)c2c(-c3cccc(CO)c3F)n(Cc3cccc4ccccc34)cc12 [Example 29, 7-(2-fluoro-3-(hydroxymethyl)phenyl)-4-isobutyl-2-methyl-6-(naphthalen-1-ylmethyl)-2,6-dihydro-1H-pyrrolo[3,4-d]pyridazin-1-one]
600 nM	CC(C)Cc1nn(C)c(=O)c2c(-c3cc(CO)ccc3Cl)n(Cc3cccc4ccccc34)cc12 [Example 30, 7-(2-chloro-5-(hydroxymethyl)phenyl)-4-isobutyl-2-methyl-6-(naphthalen-1-ylmethyl)-2,6-dihydro-1H-pyrrolo[3,4-d]pyridazin-1-one]

The next lines start with the compound.

Compound	EC50
Cc1n[nH]c(C)c1Cc1sc2c(c1-c1cccc(CO)c1F)c(=O)n(C)c(=O)n2CC(C)C [Example 1, 6-((3,5-dimethyl-1H-pyrazol-4-yl)methyl)-5-(2-fluoro-3-(hydroxymethyl)phenyl)-1-isobutyl-3-methylthieno[2,3-d]pyrimidine-2,4(1H,3H)-dione]	≤ 20 nM
Cc1cc(CO)c(F)c(-c2c(Cc3c(C)n[nH]c3C)sc3c2c(=O)n(C)c(=O)n3CC(C)C)c1 [Example 2, 6-((3,5-dimethyl-1H-pyrazol-4-yl)methyl)-5-(2-fluoro-3-(hydroxymethyl)-5-methylphenyl)-1-isobutyl-3-methylthieno[2,3-d]pyrimidine-2,4(1H,3H)-dione]	100 nM
Cc1n[nH]c(C)c1Cc1sc2c(c1-c1c(F)cc(F)c(CO)c1F)c(=O)n(C)c(=O)n2CC(C)C [Example 3, 6-((3,5-dimethyl-1H-pyrazol-4-yl)methyl)-1-isobutyl-3-methyl-5-(2,4,6-trifluoro-3-(hydroxymethyl)phenyl)thieno[2,3-d]pyrimidine-2,4(1H,3H)-dione]	1000 to 10000 nM
Cc1n[nH]c(C)c1Cc1sc2c(c1-c1cnc(F)c(CO)c1)c(=O)n(C)c(=O)n2CC(C)C [Example 4, 6-((3,5-dimethyl-1H-pyrazol-4-yl)methyl)-5-(6-fluoro-5-(hydroxymethyl)pyridin-3-yl)-1-isobutyl-3-methylthieno[2,3-d]pyrimidine-2,4(1H,3H)-dione]	200 nM
Cc1n[nH]c(C)c1Cc1sc2c(c1-c1cc(F)c(F)c(CO)c1)c(=O)n(C)c(=O)n2CC(C)C [Example 5, 5-(3,4-difluoro-5-(hydroxymethyl)phenyl)-6-((3,5-dimethyl-1H-pyrazol-4-yl)methyl)-1-isobutyl-3-methylthieno[2,3-d]pyrimidine-2,4(1H,3H)-dione]	160 nM
Cc1n[nH]c(C)c1Cc1sc2c(c1-c1cc(CO)c(F)cc1F)c(=O)n(C)c(=O)n2CC(C)C [Example 6, 5-(2,4-difluoro-5-(hydroxymethyl)phenyl)-6-((3,5-dimethyl-1H-pyrazol-4-yl)methyl)-1-isobutyl-3-methylthieno[2,3-d]pyrimidine-2,4(1H,3H)-dione]	≤ 20 nM
Cc1n[nH]c(C)c1Cc1sc2c(c1-c1ccc(F)c(CO)c1F)c(=O)n(C)c(=O)n2CC(C)C [Example 7, 5-(2,4-difluoro-3-(hydroxymethyl)phenyl)-6-((3,5-dimethyl-1H-pyrazol-4-yl)methyl)-1-isobutyl-3-methylthieno[2,3-d]pyrimidine-2,4(1H,3H)-dione]	≤ 20 nM
Cc1n[nH]c(C)c1Cc1sc2c(c1-c1cncc(C(O)C(F)(F)F)c1)c(=O)n(C)c(=O)n2CC(C)C (stereo not shown) [Example 8, 6-((3,5-dimethyl-1H-pyrazol-4-yl)methyl)-1-isobutyl-3-methyl-5-(5-(2,2,2-trifluoro-1-hydroxyethyl)pyridin-3-yl)thieno[2,3-d]pyrimidine-2,4(1H,3H)-dione]	34 nM
Cc1n[nH]c(C)c1Cc1sc2c(c1-c1ccnc(CO)c1)c(=O)n(C)c(=O)n2CC(C)C [Example 10, 6-((3,5-dimethyl-1H-pyrazol-4-yl)methyl)-5-(2-(hydroxymethyl)pyridin-4-yl)-1-isobutyl-3-methylthieno[2,3-d]pyrimidine-2,4(1H,3H)-dione]	90 nM
Cc1n[nH]c(C)c1Cc1sc2c(c1-c1cc(F)cc(CO)c1)c(=O)n(C)c(=O)n2CC(C)C [Example 11, 6-((3,5-dimethyl-1H-pyrazol-4-yl)methyl)-5-(3-fluoro-5-(hydroxymethyl)phenyl)-1-isobutyl-3-methylthieno[2,3-d]pyrimidine-2,4(1H,3H)-dione]	25 nM
Cc1n[nH]c(C)c1Cc1sc2c(c1-c1cncc(CO)c1)c(=O)n(C)c(=O)n2CC(C)C [Example 12, 6-((3,5-dimethyl-1H-pyrazol-4-yl)methyl)-5-(5-(hydroxymethyl)pyridin-3-yl)-1-isobutyl-3-methylthieno[2,3-d]pyrimidine-2,4(1H,3H)-dione]	75 nM
Cc1n[nH]c(C)c1Cc1sc2c(c1-c1cccc(C(C)O)c1)c(=O)n(C)c(=O)n2CC(C)C (stereo not shown) [Example 13, 6-((3,5-dimethyl-1H-pyrazol-4-yl)methyl)-5-(3-(1-hydroxyethyl)phenyl)-1-isobutyl-3-methylthieno[2,3-d]pyrimidine-2,4(1H,3H)-dione]	50 nM
Cc1n[nH]c(C)c1Cc1sc2c(c1-c1cccc(C(O)C(F)(F)F)c1)c(=O)n(C)c(=O)n2CC(C)C (stereo not shown) [Example 14, 6-((3,5-dimethyl-1H-pyrazol-4-yl)methyl)-1-isobutyl-3-methyl-5-(3-(2,2,2-trifluoro-1-hydroxyethyl)phenyl)thieno[2,3-d]pyrimidine-2,4(1H,3H)-dione]	< 20 nM
Cc1n[nH]c(C)c1Cc1sc2c(c1-c1cccc(CO)c1)c(=O)n(C)c(=O)n2CC(C)C [Example 15, 6-((3,5-dimethyl-1H-pyrazol-4-yl)methyl)-5-(3-(hydroxymethyl)phenyl)-1-isobutyl-3-methylthieno[2,3-d]pyrimidine-2,4(1H,3H)-dione]	< 20 nM
Cc1n[nH]c(C)c1Cc1sc2c(c1-c1ccc(F)c(CO)c1)c(=O)n(C1CC1)c(=O)n2CC(C)C [Example 16, 3-cyclopropyl-6-((3,5-dimethyl-1H-pyrazol-4-yl)methyl)-5-(4-fluoro-3-(hydroxymethyl)phenyl)-1-isobutylthieno[2,3-d]pyrimidine-2,4(1H,3H)-dione]	220 nM
Cc1cc(CO)c(F)c(-c2c(Cc3c(C)n[nH]c3C)sc3c2c(=O)n(C2CC2)c(=O)n3CC(C)C)c1 [Example 17, 3-cyclopropyl-6-((3,5-dimethyl-1H-pyrazol-4-yl)methyl)-5-(2-fluoro-3-(hydroxymethyl)-5-methylphenyl)-1-isobutylthieno[2,3-d]pyrimidine-2,4(1H,3H)-dione]	100 nM

— patent US10329303B2, “Heterocyclic inhibitors of monocarboxylate transporter” (THE SCRIPPS RESEARCH INSTITUTE, priority 2015, dated 2019)
